Experimental data as given in ChEMBL document CHEMBL1149249 (J Med Chem, 2004).

Experiments:
[1] = target: T1, Adenosine receptor A1 (Rattus norvegicus, UniProt P25099); assay: Displacement of [3h]DPCPX from adenosine A receptor in rat cerebral cortex membrane
T1 sequence (P25099 whole entry): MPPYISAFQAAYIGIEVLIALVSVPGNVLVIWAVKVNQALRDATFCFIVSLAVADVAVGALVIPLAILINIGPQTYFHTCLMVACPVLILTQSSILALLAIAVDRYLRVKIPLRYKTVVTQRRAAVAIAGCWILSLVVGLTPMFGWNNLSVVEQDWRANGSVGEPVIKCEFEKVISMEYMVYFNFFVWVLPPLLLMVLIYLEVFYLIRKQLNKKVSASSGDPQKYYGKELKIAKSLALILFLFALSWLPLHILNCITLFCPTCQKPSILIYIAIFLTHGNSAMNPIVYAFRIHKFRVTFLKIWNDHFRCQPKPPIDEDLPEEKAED

[2] = target: Adenosine receptor A2a (Rattus norvegicus, UniProt P30543); assay: Displacement of [3H]ZM241385 from adenosine A2A receptor in rat brain membrane; assay type: cell membranes
Sequence of Adenosine receptor A2a (P30543 whole entry): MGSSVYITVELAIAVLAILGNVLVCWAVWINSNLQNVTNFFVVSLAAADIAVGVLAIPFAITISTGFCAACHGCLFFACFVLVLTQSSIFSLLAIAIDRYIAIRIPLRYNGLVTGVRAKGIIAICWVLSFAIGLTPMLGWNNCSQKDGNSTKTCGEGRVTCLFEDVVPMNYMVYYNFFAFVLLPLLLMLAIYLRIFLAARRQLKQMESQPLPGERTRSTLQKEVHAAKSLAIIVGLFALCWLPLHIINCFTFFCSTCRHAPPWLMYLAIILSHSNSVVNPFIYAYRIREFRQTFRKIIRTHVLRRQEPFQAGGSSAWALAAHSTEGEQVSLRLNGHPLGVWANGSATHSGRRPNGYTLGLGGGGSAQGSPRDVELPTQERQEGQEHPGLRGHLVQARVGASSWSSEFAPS

SMILES | Ki [1] | Ki [2]
Nc1nc(NC[C@@H]2CC[C@@H]3CN(Cc4ccc(F)cc4F)CCN3C2)nc2nc(-c3ccco3)nn12 (racemic) | > 500 nM | 130 nM (antagonist)
Nc1nc(N2CCN3C[C@H](CN(Cc4cccnc4)Cc4cccnc4)CC[C@H]3C2)nc2nc(-c3ccco3)nn12 | 7800 nM | 4 nM (antagonist)
Nc1nc(NC[C@H]2CC[C@@H]3CN(c4ncccn4)CCN3C2)nc2nc(-c3ccco3)nn12 (racemic) | > 1000 nM | 230 nM (antagonist)
Nc1nc(N2CCN3C[C@@H](COc4ccc(F)cc4)CC[C@H]3C2)nc2nc(-c3ccco3)nn12 (racemic) | > 500 nM | 4 nM (antagonist)
Nc1cc(N2CCN3[C@@H](COc4cccnc4)CCC[C@H]3C2)nc2nc(-c3ccco3)nn12 (racemic) | > 500 nM | 80 nM (antagonist)
Nc1nc(N2CCN3[C@@H](COc4ccccc4)CCC[C@H]3C2)nc2nc(-c3ccco3)nn12 (racemic) | > 500 nM | 13 nM (antagonist)
Nc1cc(N2CCN3[C@@H](CO)CCC[C@H]3C2)nc2nc(-c3ccco3)nn12 (racemic) | > 500 nM | 610 nM (antagonist)
Nc1nc(N2CCN3C[C@H](COc4cc5ccccc5cn4)CC[C@H]3C2)nc2nc(-c3ccco3)nn12 (racemic) | 710 nM (antagonist) | 130 nM (antagonist)
NC[C@H]1CC[C@H]2CN(c3nc(N)n4nc(-c5ccco5)nc4n3)CCN2C1 (racemic) | > 500 nM | 16 nM (antagonist)
Nc1nc(N2C[C@@H]3CCCN3C[C@@H]2Cc2ccccc2)nc2nc(-c3ccco3)nn12 | > 1000 nM | 490 nM (antagonist)
Nc1nc(N2CCN3C[C@@H](Cn4cnnn4)CC[C@H]3C2)nc2nc(-c3ccco3)nn12 (racemic) | > 500 nM | 14 nM (antagonist)
NC[C@H]1CC[C@H]2CN(c3cc(N)n4nc(-c5ccco5)nc4n3)CCN2C1 | > 500 nM | 110 nM (antagonist)
Nc1nc(N2CCN3C[C@@H](COc4ccccn4)CC[C@H]3C2)nc2nc(-c3ccco3)nn12 (racemic) | > 1000 nM | 20 nM (antagonist)
Nc1cc(N2CCN3[C@@H](COc4ccc5cccnc5c4)CCC[C@H]3C2)nc2nc(-c3ccco3)nn12 (racemic) | > 500 nM | 830 nM (antagonist)
Cc1nn(C)c(Cl)c1CNC[C@H]1CC[C@H]2CN(c3nc(N)n4nc(-c5ccco5)nc4n3)CCN2C1 | > 500 nM | 30 nM (antagonist)
COc1ccc(OC[C@@H]2CC[C@H]3CN(c4nc(N)n5nc(-c6ccco6)nc5n4)CCN3C2)cc1 (racemic) | > 500 nM | 70 nM (antagonist)
Nc1nc(N2CCN3C[C@H](COc4ncnc5ccccc45)CC[C@H]3C2)nc2nc(-c3ccco3)nn12 (racemic) | > 1000 nM | 37 nM (antagonist)
Nc1nc(N2CCN3C[C@H](CO)CC[C@H]3C2)nc2nc(-c3ccco3)nn12 (racemic) | 6100 nM | 71 nM (antagonist)
Nc1nc(N2CCN3C[C@@H](CN(Cc4ccc(F)cc4F)Cc4ccc(F)cc4F)CC[C@H]3C2)nc2nc(-c3ccco3)nn12 | > 1000 nM | > 500 nM
Nc1cc(N2CCN3CCCCC3C2)nc2nc(-c3ccco3)nn12 (racemic) | > 500 nM | 38 nM (antagonist)
Nc1cc(N2CCN3C[C@@H](COc4ccccc4)CC[C@H]3C2)nc2nc(-c3ccco3)nn12 (racemic) | > 500 nM | 45 nM (antagonist)
Nc1nc(N2CCN3[C@@H](CO)CCC[C@H]3C2)nc2nc(-c3ccco3)nn12 (racemic) | 1300 nM | 3 nM (antagonist)
Nc1nc(N2CCN3C[C@@H](COc4ncnc5[nH]ncc45)CC[C@@H]3C2)nc2nc(-c3ccco3)nn12 (racemic) | > 500 nM | 5 nM (antagonist)

SMILES | Ki [1] | Ki [2]
Nc1cc(N2CCN3C[C@H](CO)CC[C@H]3C2)nc2nc(-c3ccco3)nn12 (racemic) | > 1000 nM | 860 nM (antagonist)
COC(=O)c1nc(Cl)c(N2CCN3C[C@H](CNc4nc(N)n5nc(-c6ccco6)nc5n4)CC[C@@H]3C2)nc1N (racemic) | > 1000 nM | 34 nM (antagonist)
Nc1nc(N2CCN3C[C@@H](CN(Cc4cccnc4)Cc4cccnc4)CC[C@H]3C2)nc2nc(-c3ccco3)nn12 | > 1000 nM | 2 nM (antagonist)
NC[C@@H]1CC[C@H]2CN(c3nc(N)n4nc(-c5ccco5)nc4n3)CCN2C1 | 3500 nM | 2 nM (antagonist)
Nc1nc(N2CCN3C[C@H](CNc4ncccn4)CC[C@H]3C2)nc2nc(-c3ccco3)nn12 | > 1000 nM | 45 nM (antagonist)
Nc1nc(N2CCN3C[C@@H](CN(Cc4ccco4)Cc4ccco4)CC[C@H]3C2)nc2nc(-c3ccco3)nn12 | > 1000 nM | 47 nM (antagonist)
Nc1nc(N2CCN3C[C@@H](COc4cccc5cnccc45)CC[C@H]3C2)nc2nc(-c3ccco3)nn12 (racemic) | 3500 nM | 6 nM (antagonist)
Nc1nc(N2CCN3C[C@H](CO)CC[C@H]3C2)cc2nc(-c3ccco3)nn12 (racemic) | > 1000 nM | 240 nM (antagonist)
Nc1nc(N2CCN3CCCCC3C2)nc2nc(-c3ccco3)nn12 (racemic) | 860 nM (antagonist) | 12 nM (antagonist)
Nc1nc(N2CCN3[C@@H](CO)CCC[C@H]3C2)cc2nc(-c3ccco3)nn12 (racemic) | > 500 nM | 110 nM (antagonist)
Nc1nc(N2CCN3CCC[C@H]3C2)cc2nc(-c3ccco3)nn12 | > 500 nM | 110 nM (antagonist)
Nc1nc(N2CCN3C[C@@H](Cn4ccnc4)CC[C@H]3C2)nc2nc(-c3ccco3)nn12 (racemic) | 1200 nM | 0.3 nM (antagonist)
Nc1nc(N2CCN3C[C@H](COc4ccccc4)CC[C@H]3C2)nc2nc(-c3ccco3)nn12 (racemic) | > 500 nM | 53 nM (antagonist)
COc1ccc(OC[C@H]2CC[C@H]3CN(c4nc(N)n5nc(-c6ccco6)nc5n4)CCN3C2)cc1 (racemic) | > 500 nM | 35 nM (antagonist)
Nc1cc(N2CCN3[C@@H](COc4ccc5[nH]ccc5c4)CCC[C@H]3C2)nc2nc(-c3ccco3)nn12 (racemic) | > 1000 nM | 76 nM (antagonist)
Nc1nc(N2CCNCC2)nc2nc(-c3ccco3)nn12 | – | > 5000 nM
Nc1nc(N2CCN3CCC[C@@H]3C2)cc2nc(-c3ccco3)nn12 | 1100 nM | 63 nM (antagonist)
Nc1nc(N2CCN3C[C@H](COc4cccc5cnccc45)CC[C@H]3C2)nc2nc(-c3ccco3)nn12 (racemic) | 210 nM (antagonist) | 73 nM (antagonist)
Nc1nc(N2CCN3C[C@@H](CNCc4ccc(F)cc4F)CC[C@H]3C2)nc2nc(-c3ccco3)nn12 | 1100 nM | 2 nM (antagonist)
Nc1cc(N2CCN3CCC[C@H]3C2)nc2nc(-c3ccco3)nn12 | > 500 nM | 170 nM (antagonist)
Nc1nc(NC[C@@H]2CC[C@@H]3CN(c4cc(F)cc(F)c4)CCN3C2)nc2nc(-c3ccco3)nn12 (racemic) | > 500 nM | 49 nM (antagonist)
Nc1nc(N2CCN3C[C@H](COc4ccccn4)CC[C@H]3C2)nc2nc(-c3ccco3)nn12 (racemic) | > 500 nM | 41 nM (antagonist)
